Values joined by “and” are separate entries in the source; they are usually repeats but may differ in a detail not shown here. Identical values can stand only once. Toxic doses and inconclusive results are not listed.

For the experiment, the system named is P388 leukemia ip, CD2F1 mice, survival T/C. Nature of the experiment: NCI In Vivo Anticancer Drug Screen. Data for tumor model P388 Leukemia (intraperitoneal) in CD2F1 (CDF1) mice. The conditions noted are these: endpoint: median survival time, higher = longer survival. The essentials: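 Mice carrying the transplanted tumor received test compound or vehicle. Survival was recorded in each group, and the value is the treated-group measurement divided by that of the vehicle-treated control group.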

The mark [1] stands for this setting: dose: 10.0 mg/kg/injection, schedule: Q01DX009 (ip), vehicle: saline with Tween-80.
Where [2] appears, read: dose: 20.0 mg/kg/injection, schedule: Q01DX009 (ip), vehicle: saline with Tween-80.
Setting [3] is: dose: 100.0 mg/kg/injection, schedule: Q01DX009 (ip), vehicle: saline with Tween-80.
[4] abbreviates: dose: 200.0 mg/kg/injection, schedule: Q01DX009 (ip), vehicle: saline with Tween-80.
[5] abbreviates: dose: 12.5 mg/kg/injection, schedule: Q01DX005 (ip), vehicle: Klucel (hydroxypropylcellulose) (HPC).
Where [6] appears, read: dose: 25.0 mg/kg/injection, schedule: Q01DX005 (ip), vehicle: Klucel (hydroxypropylcellulose) (HPC).
[7] abbreviates: dose: 50.0 mg/kg/injection, schedule: Q01DX005 (ip), vehicle: Klucel (hydroxypropylcellulose) (HPC).
[8] abbreviates: dose: 100.0 mg/kg/injection, schedule: Q01DX005 (ip), vehicle: Klucel (hydroxypropylcellulose) (HPC).
Setting [9] is: dose: 200.0 mg/kg/injection, schedule: Q01DX005 (ip), vehicle: Klucel (hydroxypropylcellulose) (HPC).
[10] abbreviates: dose: 50.0 mg/kg/injection, schedule: Q01DX009 (ip), vehicle: saline.
Where [11] appears, read: dose: 100.0 mg/kg/injection, schedule: Q01DX009 (ip), vehicle: saline.
Setting [12] is: dose: 200.0 mg/kg/injection, schedule: Q01DX009 (ip), vehicle: saline.
[13] abbreviates: dose: 50.0 mg/kg/injection, schedule: Q01DX005 (ip), vehicle: saline with Tween-80.
Where [14] appears, read: dose: 100.0 mg/kg/injection, schedule: Q01DX005 (ip), vehicle: saline with Tween-80.
Setting [15] is: dose: 200.0 mg/kg/injection, schedule: Q01DX005 (ip), vehicle: saline with Tween-80.
[16] abbreviates: dose: 25.0 mg/kg/injection, schedule: Q01DX009 (ip), vehicle: saline.

As to `Cc1c(C)c(Cl)c(C)c(C)c1Cl`, the T/C is 95 % of control (dose: 5.0 mg/kg/injection, schedule: Q01DX009 (ip), vehicle: saline with Tween-80); 100 % of control under setting [1]; 100 % of control under setting [2].

As for `CCC(c1ccc(OC(=O)Cc2ccc(N(CCCl)CCCl)cc2)cc1)C(CC)c1ccc(OC(=O)Cc2ccc(N(CCCl)CCCl)cc2)cc1` (stereo unspecified), the T/C reads like this: (dose: 80.0 mg/kg/injection, schedule: Q01DX009 (ip), vehicle: saline with Tween-80) 92 % of control; (dose: 120.0 mg/kg/injection, schedule: Q01DX009 (ip), vehicle: saline with Tween-80) 93 % of control; (dose: 180.0 mg/kg/injection, schedule: Q01DX009 (ip), vehicle: saline with Tween-80) 89 % of control; (dose: 270.0 mg/kg/injection, schedule: Q01DX009 (ip), vehicle: saline with Tween-80) 90 % of control; (dose: 405.0 mg/kg/injection, schedule: Q01DX009 (ip), vehicle: saline with Tween-80) 92 % of control.

On to `CCOC(OCC)c1c(Cl)cccc1Cl`, for which the T/C was 118 % of control under setting [3]; 100 % of control (dose: 100.0 mg/kg/injection, schedule: Q04DX003 (ip), vehicle: saline with Tween-80); 118 % of control under setting [4]; 100 % of control (dose: 200.0 mg/kg/injection, schedule: Q04DX003 (ip), vehicle: saline with Tween-80); 90 % of control (dose: 400.0 mg/kg/injection, schedule: Q04DX003 (ip), vehicle: saline with Tween-80).

Consider `NCCc1cc2ccccc2c2ccccc12`, for which the T/C was 99 % of control under setting [5]; 99 % of control under setting [6]; 99 % of control and 95 % of control under setting [7].

`S=C(Nc1ccccc1)Nc1ncn[nH]1`: the T/C was 101 % of control under setting [7], 100 % of control under setting [8] and 99 % of control under setting [9].

On to `CC/C(=N/NS(=O)(=O)c1ccc(C)cc1)c1ccc(C)c(C)c1`, for which the T/C is, setting by setting: under setting [10], 98 % of control; under setting [11], 90 % of control; under setting [12], 104 % of control.

Take `CCCN(CCC)C(C)C(O)c1ccc2cc(Br)c3ccccc3c2c1` (stereo unspecified): the T/C was 98 % of control under setting [13], 99 % of control under setting [14] and 100 % of control under setting [15].

Take `CCOC(=O)CCN(CC1CC=CCC1)c1cc(O)c2c(c1O)C(=O)c1ccccc1C2=O` (stereo unspecified): the T/C by setting is: (dose: 25.0 mg/kg/injection, schedule: Q01DX005 (ip), vehicle: saline with Tween-80) 91 % of control; under setting [13], 92 % of control; under setting [14], 90 % of control; under setting [15], 92 % of control.

For the molecule `COc1cc2c[n+]3c(c(C)c2cc1OC)-c1cc2c(cc1CC3)OCO2`, the T/C is 106 % of control (dose: 6.25 mg/kg/injection, schedule: Q04DX003 (ip), vehicle: distilled water + Tween-80); 113 % of control (dose: 12.5 mg/kg/injection, schedule: Q04DX003 (ip), vehicle: distilled water + Tween-80); 116 % of control (dose: 25.0 mg/kg/injection, schedule: Q04DX003 (ip), vehicle: distilled water + Tween-80); 108 % of control (dose: 50.0 mg/kg/injection, schedule: Q04DX003 (ip), vehicle: distilled water + Tween-80).

`ClC(Cl)Oc1ccccc1`: the T/C reads like this: under setting [1], 97 % of control; under setting [2], 106 % of control; (dose: 40.0 mg/kg/injection, schedule: Q01DX009 (ip), vehicle: saline with Tween-80) 103 % of control.

Regarding `CN(CC(O)C(O)CN(C)N=O)N=O` (stereo unspecified), the T/C by setting is: (dose: 100.0 mg/kg/injection, schedule: Q01DX001 (ip), vehicle: Klucel (hydroxypropylcellulose) (HPC)) 88 % of control; (dose: 200.0 mg/kg/injection, schedule: Q01DX001 (ip), vehicle: Klucel (hydroxypropylcellulose) (HPC)) 94 % of control; (dose: 400.0 mg/kg/injection, schedule: Q01DX001 (ip), vehicle: Klucel (hydroxypropylcellulose) (HPC)) 100 % of control.

For `CCc1cnc2ccccc2c1/C=C/c1ccc(N(C)C)cc1`, the T/C (dose: 50.0 mg/kg/injection, schedule: Q01DX009 (ip), vehicle: saline with Tween-80) is 98 % of control; the T/C under setting [3] is 105 % of control; the T/C under setting [4] is 103 % of control.

Take `C/C(=C\CCCC(/C=C/C=C/CCCCOCc1ccccc1)O[Si](C)(C)C(C)(C)C)CO` (stereo unspecified): the T/C under setting [13] is 102 % of control, the T/C under setting [14] is 101 % of control and the T/C under setting [15] is 99 % of control.

As for `C=CCOC(=O)CCl`, the T/C was 99 % of control (dose: 25.0 mg/kg/injection, schedule: Q04DX003 (ip), vehicle: Klucel (hydroxypropylcellulose) (HPC)); 98 % of control (dose: 50.0 mg/kg/injection, schedule: Q04DX003 (ip), vehicle: Klucel (hydroxypropylcellulose) (HPC)); 93 % of control and 96 % of control (dose: 100.0 mg/kg/injection, schedule: Q04DX003 (ip), vehicle: Klucel (hydroxypropylcellulose) (HPC)).

Regarding `NC(N)=Nc1ccc(-c2cc3cc(N=C(N)N)ccc3s2)cc1`, the T/C is, setting by setting: (dose: 6.25 mg/kg/injection, schedule: Q01DX005 (ip), vehicle: Klucel (hydroxypropylcellulose) (HPC)) 108 % of control; under setting [5], 105 % of control; under setting [6], 115 % of control; under setting [7], 168 % of control.

In the case of `CCOC1CC(C)(O)Cc2cc3c(c(O)c21)C(=O)c1c(O)cc2c(c1C3=O)OC1OC2(C)C(O)C(N(C)C)C1O` (stereo unspecified), the T/C reads like this: (dose: 2.5 mg/kg/injection, schedule: Q01DX009 (ip), vehicle: other) 150 % of control and 156 % of control; (dose: 3.25 mg/kg/injection, schedule: Q01DX009 (ip), vehicle: other) 151 % of control; (dose: 5.0 mg/kg/injection, schedule: Q01DX009 (ip), vehicle: other) 166 % of control and 207 % of control; (dose: 6.5 mg/kg/injection, schedule: Q01DX009 (ip), vehicle: other) 163 % of control; (dose: 10.0 mg/kg/injection, schedule: Q01DX009 (ip), vehicle: other) 178 % of control and 205 % of control; (dose: 13.0 mg/kg/injection, schedule: Q01DX009 (ip), vehicle: other) 93 % of control. Moreover, the T/C (dose: 20.0 mg/kg/injection, schedule: Q01DX009 (ip), vehicle: other) was 87 % of control.

For the molecule `COC(=O)C1=CO[C@@H](OC2OC(CO)C(O)C(O)C2O)[C@@H]2[C@@H](C)[C@@H](O)[C@@H](O)[C@]12O` (stereo partly specified), the T/C by setting is: (dose: 25.0 mg/kg/injection, schedule: Q01DX005 (ip), vehicle: saline) 102 % of control; (dose: 50.0 mg/kg/injection, schedule: Q01DX005 (ip), vehicle: saline) 102 % of control; (dose: 100.0 mg/kg/injection, schedule: Q01DX005 (ip), vehicle: saline) 100 % of control; (dose: 200.0 mg/kg/injection, schedule: Q01DX005 (ip), vehicle: saline) 108 % of control.

As for `Cc1ccc2c(c1)C1(SC(C)C(=O)N1c1ccc(I)cc1)C(=O)N2` (stereo unspecified), the T/C was 103 % of control (dose: 60.0 mg/kg/injection, schedule: Q01DX005 (ip), vehicle: saline with Tween-80); 94 % of control (dose: 120.0 mg/kg/injection, schedule: Q01DX005 (ip), vehicle: saline with Tween-80); 91 % of control (dose: 240.0 mg/kg/injection, schedule: Q01DX005 (ip), vehicle: saline with Tween-80).

In the case of `O=C1CCCC2=C1[Se]C1(O2)C(=O)CCCC1=O`, the T/C is 102 % of control (dose: 12.5 mg/kg/injection, schedule: Q01DX009 (ip), vehicle: saline); 101 % of control under setting [16]; 104 % of control and 107 % of control under setting [10].

In the case of `c1cncc(CNCc2cccnc2)c1`, the T/C by setting is: under setting [16], 94 % of control; under setting [10], 110 % of control; under setting [11], 97 % of control; under setting [12], 94 % of control.

Turning to `COc1cc2c(cc1OC)C(=O)OC(=O)C2`, the T/C runs as follows: under setting [7], 100 % of control; under setting [8], 92 % of control; under setting [9], 95 % of control.
